In patent US10604535B2, “Compounds, compositions and methods” (Denali Therapeutics Inc., priority 2016, dated 2020):

Columns and labels:
[1] = male, Sprague-Dawley Crl:CD(SD), in vivo, iv
[2] = tested on: human cryopreserved hepatocytes; experiment: Metabolic stability (hepatocytes); conditions: human cryopreserved hepatocytes
Procedure: The metabolic stability of compounds was evaluated in human cryopreserved hepatocytes (BioreclamationlVT, NY, USA) in duplicate. Test articles (or controls) were added to a 24-well incubation plate (Becton Dickinson Labware, USA) containing 0.5×10^6 hepatocytes/mL in suspension. The plate was held at 37° C. and agitated with constant orbital shaking (orbital speed at 350 rpm). At each time point (0, 5, 10, 15, 20, 30, 45, 60, 90, 120, 150 and 180 min) a Tecan Evo robot aspirated 50 μL of the incubation mixture and 100 μL of acetonitrile containing internal standard to quench the reaction. […] Samples were centrifuged (3000 rpm for 10 minutes) and the plate sealed prior to injection onto an LC-MS/MS system.
The appropriate parent/daughter ions were monitored for the test article and IS with the LC-MS/MS system. The intrinsic clearance (Clint; expressed μL/min/million cells) was determined from the first order elimination constant (k, min^−1) of test article decay and the volume of the incubation. […] The intrinsic organ CL was then converted to the hepatic clearance (CLhep) using the well-stirred model as shown below, where Qh is human hepatic blood flow.
Hepatic clearance is expressed as mL/min/kg. The hepatic clearance relates to the flow of blood through the liver that is completely cleared of the compound.

[3] = male, cynomolgus monkey, in vivo, iv
P-gp (MDR1) = experiment: MDCKII-MDR1 permeability, efflux ratio; type: in vitro ADME; conditions: dog, MDCK-MDR1, pH 7.4, MDCKII-MDR1, 3 μM, read-out: ER MDR1
Procedure: The blood brain barrier (BBB) separates circulating blood from the extracellular fluid of the central nervous system (CNS). The passive membrane permeability (Papp) and the P-gp (P-glycoprotein) substrate efflux potential were determined using the MDCKII-MDR1 cell line as an in vitro model of the effective permeability of a compound through the BBB. A bidirectional assay (Apical to Basolateral (A→B) and Basolateral to Apical (B→A)), in the absence and in the presence of GF120918 (a P-gp inhibitor) was conducted using pre-plated MDCKII-MDR1 cells (Corning HTS Transwell-96) obtained from SOLVO Biotechnology. The assay was run at 3 μM for 90 min (minutes) in triplicate using a HBSS+12.5 mM HEPES pH 7.4 transport buffer. Following incubation of samples from donor and receiver, wells were removed and measured by LC-MS/MS. Samples were extracted by protein precipitation with acetonitrile containing an appropriate internal standard (IS) having a known mass and molecular weight. The precipitate was centrifuged for 10 min at 3000 rpm (revolutions per minute). The supernatants were then collected, diluted if necessary, and injected on to the LC-MS/MS system. […] Papp (apparent permeability expressed in nm/sec [nanometer/second]) values were calculated according to the following equation: […]
Where dQ/dt is the permeability rate, C0 is the initial concentration in the donor solution (expressed as IS ratio), A and B are the surface areas of the filter (the surface area of the cell monolayer).
Monolayer efflux ratios (ER) were derived using the following equation: […]

GST-hRIPK1 (8-327) [4] = target: T1, GST-hRIPK1 (8-327) (Homo sapiens (Human), UniProt Q13546); experiment: Fluorescent Polarization Binding (FP Binding) assay
GST-hRIPK1 (8-327) [5] = target: T1, GST-hRIPK1 (8-327); experiment: ADP-Glo kinase assay; type: biochemical
Procedure: GST-hRIPK1 (8-327) enzyme was generated by Proteros GmbH by Baculovirus expression system.
Test compounds were diluted in DMSO and 0.1 μL of solution was dispensed to each well of a 384-well white solid microplate. The assay buffer was 50 mM HEPES pH 7.5, 50 mM NaCl, 30 mM MgCl2. The buffer was supplemented with 0.02% CHAPS, 0.01% of Pluronic F127, 0.1 mg/mL BSA and 1 mM DTT. MnCl2, 5 mM, was included in the assay buffer on the day of the experiment. The enzymatic reaction comprised 1.5 μg/mL GST-hRIPK1 (8-327) and 50 μM ATP for receptor interacting protein kinase 1 and 15 μM ATP. 5 μL of enzyme and 5 μL of ATP were added to the plate at twice the final assay concentration and incubated at room temperature for 3 hours. Following this reaction, 10 μL of ADP-Glo reagent (Promega) was added to each well and incubated for 40 min at room temperature. This stops the kinase reaction and depletes any remaining ATP. 20 μL of ADP-Glo detection reagent was then added to each well and incubated at room temperature for at least 15 minutes. The detection reagent converts ADP to ATP and introduces luciferase and luciferin to detect ATP. The luminescence is then measured with the Envision (PerkinElmer) plate reader. Test compound inhibition was expressed as percent inhibition of internal assay controls. For concentration response curves, normalized data is fit and IC50 determined using XL-fit (IDBS) for Excel. The IC50 were averaged to determine a mean value, for a minimum of two independent experiments.
Test compound inhibition was expressed as percent inhibition of internal assay controls. For concentration response curves, normalized data is fit and IC50 determined using XL-fit (IDBS) for Excel. The IC50 were averaged to determine a mean value, for a minimum of two independent experiments.

[6] = male, Beagle, in vivo, iv

T1 sequence (Q13546 8-327): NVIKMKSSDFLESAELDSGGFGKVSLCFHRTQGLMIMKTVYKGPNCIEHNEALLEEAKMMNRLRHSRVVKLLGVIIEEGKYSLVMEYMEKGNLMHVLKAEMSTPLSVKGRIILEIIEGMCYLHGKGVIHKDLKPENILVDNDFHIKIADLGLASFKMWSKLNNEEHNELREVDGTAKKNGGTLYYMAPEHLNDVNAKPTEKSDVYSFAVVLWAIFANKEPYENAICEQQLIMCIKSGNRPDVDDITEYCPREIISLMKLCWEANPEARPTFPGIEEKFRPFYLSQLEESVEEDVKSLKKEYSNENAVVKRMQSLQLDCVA

| Rat unbound CL [1] | Human hepatocyte CLhep Avg [2] | Cyno unbound CL [3] | efflux ratio at 90 min, 3 μM (P-gp (MDR1)) | IC50 (GST-hRIPK1 (8-327) [4]) | IC50 (GST-hRIPK1 (8-327) [5]) | Dog unbound CL [6] | Compound |
| --- | --- | --- | --- | --- | --- | --- | --- |
| 5.46 L/h/kg | 0.546 L/h/kg | 5.58 L/h/kg | – | – | – | – | CN1C(=O)[C@@H](NC(=O)c2nnc(Cc3ccccc3)[nH]2)[C@H]2C[C@H]2c2cccnc21 [Example 75A, 5-benzyl-N-((1aS,2S,8bR)-4-methyl-3-oxo-1,1a,2,3,4,8b-hexahydrocyclopropa[d]pyrido[2,3-b]azepin-2-yl)-4H-1,2,4-triazole-3-carboxamide] |
| 6 L/h/kg | 0.54 L/h/kg | 8.4 L/h/kg | – | 0.0001 to 1 µM | – | – | C[C@H]1Oc2cccnc2N(C)C(=O)[C@H]1NC(=O)c1nnc(Cc2ccccc2)o1 [Example 134, 5-Benzyl-N-((2R,3S)-2,5-dimethyl-4-oxo-2,3,4,5-tetrahydropyrido[3,2-b][1,4]oxazepin-3-yl)-1,3,4-oxadiazole-2-carboxamide] |
| – | 0.96 L/h/kg | – | 16 | 0.0001 to 1 µM | – | – | CN1C(=O)[C@@H](NC(=O)c2nnc(Cc3ccccc3)[nH]2)[C@H]2C[C@H]2c2ccccc21 [Example 46A, 5-benzyl-N-((2S)-4-methyl-3-oxo-1,1a,2,3,4,8b-hexahydrobenzo[b]cyclopropa[d]azepin-2-yl)-4H-1,2,4-triazole-3-carboxamide] |
| – | – | – | – | – | > 10 µM | – | CN1C(=O)[C@@H](NCC(=O)NCc2ccccc2)COc2ccccc21 [Example 18, (S)—N-benzyl-2-((5-methyl-4-oxo-2,3,4,5-tetrahydrobenzo[b][1,4]oxazepin-3-yl)amino)acetamide] |
| – | – | – | – | – | > 10 µM | – | CC(=O)N[C@H]1COc2ccccc2N(C)C1=O [Example 26, (S)—N-(5-methyl-4-oxo-2,3,4,5-tetrahydrobenzo[b][1,4]oxazepin-3-yl)acetamide] |
| 3.66 L/h/kg | 0.252 L/h/kg | 2.34 L/h/kg | – | 0.0001 to 1 µM | – | – | CN1C(=O)[C@@H](NC(=O)c2nnc(Cc3ccccc3)o2)COc2cccnc21 [Example 146, (S)-5-benzyl-N-(5-methyl-4-oxo-2,3,4,5-tetrahydropyrido[3,2-b][1,4]oxazepin-3-yl)-1,3,4-oxadiazole-2-carboxamide] |
| 3.9 L/h/kg | 0.318 L/h/kg | – | – | 0.0001 to 1 µM | – | – | C[C@H]1Oc2cccnc2N(C)C(=O)[C@H]1NC(=O)c1ncn(Cc2cccc(C#N)c2)n1 [Example 172, 1-(3-cyanobenzyl)-N-((2R,3S)-2,5-dimethyl-4-oxo-2,3,4,5-tetrahydropyrido[3,2-b][1,4]oxazepin-3-yl)-1H-1,2,4-triazole-3-carboxamide] |
| – | 0.318 L/h/kg | – | 36 | 0.0001 to 1 µM | – | – | [2H]C([2H])([2H])N1C(=O)[C@@H](NC(=O)c2nn(Cc3ccccc3)cc2F)[C@H]2C[C@H]2c2cc(S(C)(=O)=O)ccc21 [Example 183B, 1-benzyl-4-fluoro-N-((1aS,2S,8bR)-4-trideuteriomethyl-7-(methylsulfonyl)-3-oxo-1,1a,2,3,4,8b-hexahydrobenzo[b]cyclopropa[d]azepin-2-yl)-1H-pyrazole-3-carboxamide] |
| – | 0.378 L/h/kg | – | – | – | – | 2.16 L/h/kg | CN1C(=O)[C@@H](NC(=O)c2nnc(C3(c4ccccc4)CC3)o2)COc2cccnc21 [Example 66, (S)—N-(5-methyl-4-oxo-2,3,4,5-tetrahydropyrido[3,2-b][1,4]oxazepin-3-yl)-5-(1-phenylcyclopropyl)-1,3,4-oxadiazole-2-carboxamide] |
| – | – | – | – | – | 1 to 10 µM | – | CCN1C(=O)[C@@H](NC(=O)c2cc(Cc3ccccc3)on2)COc2ccccc21 [Example 19, (S)-5-benzyl-N-(5-ethyl-4-oxo-2,3,4,5-tetrahydrobenzo[b][1,4]oxazepin-3-yl)isoxazole-3-carboxamide] |
| 2.64 L/h/kg | 0.294 L/h/kg | 2.4 L/h/kg | – | 0.0001 to 1 µM | – | – | C[C@H]1Oc2cccnc2N(C)C(=O)[C@H]1NC(=O)c1nnc(Cc2ccccc2)[nH]1 [Example 94, 5-benzyl-N-((2R,3S)-2,5-dimethyl-4-oxo-2,3,4,5-tetrahydropyrido[3,2-b][1,4]oxazepin-3-yl)-4H-1,2,4-triazole-3-carboxamide] |
| – | 0.06 L/h/kg | 4.92 L/h/kg | – | – | – | – | O=C(N[C@@H]1C(=O)Nc2c(F)cc(F)cc2[C@@H]2C[C@H]12)c1nnc(Cc2ccccc2)[nH]1 [Example 83A, 5-benzyl-N-((1aS,2S,8bR)-5,7-difluoro-3-oxo-1,1a,2,3,4,8b-hexahydrobenzo[b]cyclopropa[d]azepin-2-yl)-4H-1,2,4-triazole-3-carboxamide] |
| 3.3 L/h/kg | 0.252 L/h/kg | 3.48 L/h/kg | 1.4 | 0.0001 to 1 µM | – | – | CN1C(=O)[C@@H](NC(=O)c2nnc(Cc3ccccc3)o2)[C@H]2C[C@H]2c2nccnc21 [Example 177A, 5-benzyl-N-((7S,7aS,8aR)-5-methyl-6-oxo-5,6,7,7a,8,8a-hexahydrocyclopropa[d]pyrazino[2,3-b]azepin-7-yl)-1,3,4-oxadiazole-2-carboxamide] |
| – | – | – | – | – | > 10 µM | – | CN1C(=O)[C@@H](NC(=O)c2ccc(C#N)n2C)COc2ccccc21 [Example 24, (S)-5-cyano-1-methyl-N-(5-methyl-4-oxo-2,3,4,5-tetrahydrobenzo[b][1,4]oxazepin-3-yl)-1H-pyrrole-2-carboxamide] |

| Compound | Rat unbound CL [1] | Human hepatocyte CLhep Avg [2] | Cyno unbound CL [3] | efflux ratio at 90 min, 3 μM (P-gp (MDR1)) | IC50 (GST-hRIPK1 (8-327) [4]) | IC50 (GST-hRIPK1 (8-327) [5]) | Dog unbound CL [6] |
| --- | --- | --- | --- | --- | --- | --- | --- |
| CN1C(=O)[C@@H](NC(=O)c2nnc(Cc3ccccc3)[nH]2)[C@H]2C[C@H]2c2nccnc21 [Example 119B, 5-benzyl-N-((7S,7aS,8aR)-5-methyl-6-oxo-5,6,7,7a,8,8a-hexahydrocyclopropa[d]pyrazino[2,3-b]azepin-7-yl)-4H-1,2,4-triazole-3-carboxamide] | 1.2 L/h/kg | 0 L/h/kg | 1.56 L/h/kg | 18 | 0.0001 to 1 µM | – | – |
| Cc1nnc(C(=O)N[C@H]2COc3ccccc3N(C)C2=O)[nH]1 [Example 25, (S)-5-methyl-N-(5-methyl-4-oxo-2,3,4,5-tetrahydrobenzo[b][1,4]oxazepin-3-yl)-4H-1,2,4-triazole-3-carboxamide] | – | – | – | – | – | > 10 µM | – |
| O=C(NC1CCc2ccccc2CC1)c1cc(Cc2ccccc2)on1 [Example 15, 5-benzyl-N-(6,7,8,9-tetrahydro-5H-benzo[7]annulen-7-yl)isoxazole-3-carboxamide] | – | – | – | – | – | > 10 µM | – |
| O=C(N[C@H]1COC[C@@H]2CCCN2C1=O)c1nnc(Cc2ccccc2)[nH]1 [Example 27, 5-benzyl-N-((4S,9aS)-5-oxohexahydro-1H,3H-pyrrolo[2,1-c][1,4]oxazepin-4-yl)-4H-1,2,4-triazole-3-carboxamide] | – | – | – | – | – | > 10 µM | – |
| C[C@H]1Oc2cccnc2N(C)C(=O)[C@H]1NC(=O)c1nn(Cc2ccccc2)cc1F [Example 92, 1-benzyl-N-((2R,3S)-2,5-dimethyl-4-oxo-2,3,4,5-tetrahydropyrido[3,2-b][1,4]oxazepin-3-yl)-4-fluoro-1H-pyrazole-3-carboxamide] | 25.2 L/h/kg | – | – | – | 0.0001 to 1 µM | – | – |
